Columns and labels:
A. baumanii ATCC 19606 = experiment: Antibacterial activity (MIC, broth dilution); format: cell-based, Acinetobacter baumanii; conditions: CLSI, in µg/mL
Text: Staphylococcus aureus ATCC 29213, Escherichia coli ATCC 25922, Enterococcus faecalis ATCC 29212, Streptococcus pneumonia ATCC 49619 and Acinetobacter baumanii ATCC 19606 were obtained from Microbiologics (St. Cloud, MN). E. faecalis ATCC 51575, ATCC 51299 and REMEL C99707 and E. faecium ATCC 51559 (MDR), REMEL IH79985 and REMEL C110914 were generously provided by the Laboratory of Pathology, University of Maryland Baltimore School of Medicine. Unless stated otherwise, chemicals and reagents were purchased from Sigma.
(§1) Determination of the Minimal Inhibitory Concentrations (MIC) by dilution was carried out by broth dilution according to CLSI standards.

E. aerogenes ATCC 13048 = experiment: Antibacterial activity (MIC, broth dilution); format: cell-based; conditions: CLSI
Description: as §1

E. cloacae ATCC 13047 = experiment: Antibacterial activity (MIC, broth dilution); format: cell-based; conditions: CLSI
Description: as §1

E. faecium EF1509 (VRE) = experiment: Antibacterial activity (MIC, broth dilution); format: cell-based; conditions: CLSI, in µg/mL
Description: as §1

E. faecium F118 (VRE) = experiment: Antibacterial activity (MIC, broth dilution); format: cell-based; conditions: CLSI, in µg/mL
Description: as §1

[1] = tested on: K. pneumoniae NR-15410 (KPC); experiment: Antibacterial activity (MIC, broth dilution); format: cell-based; conditions: CLSI
Description: as §1

[2] = tested on: K. pneumoniae NR-15411 (KPC); experiment: Antibacterial activity (MIC, broth dilution); format: cell-based; conditions: CLSI
Description: as §1

P. aeruginosa ATCC 27853 = experiment: Antibacterial activity (MIC, broth dilution); format: cell-based; conditions: CLSI
Description: as §1

P. aeruginosa PA01 = experiment: Antibacterial activity (MIC, broth dilution); format: cell-based; conditions: CLSI
Description: as §1

P. aeruginosa X13273 = experiment: Antibacterial activity (MIC, broth dilution); format: cell-based; conditions: CLSI, in µg/mL
Description: as §1

[3] = tested on: S. aureus HFH-30123 (MRSA); experiment: Antibacterial activity (MIC, broth dilution); format: cell-based; conditions: CLSI
Description: as §1

S. aureus MRSA 1094 = experiment: Antibacterial activity (MIC, broth dilution); format: cell-based; conditions: CLSI
Description: as §1

HeLa cells = experiment: Cytotoxicity against mammalian cells (MTS assay); format: cell-based
Description: The cytotoxicity concentration of antibacterial compounds that produces half maximal decrease in viability (CC50) against mammalian cells (HeLa, ATCC CCL-2.2) was determined as described. The effect of compounds on HeLa cell viability was assessed in triplicate by measuring the mitochondrial activity using MTS assays according to the manufacturer’s instructions (Cell Titer 96 proliferation assay, Promega). The cells were incubated for 72 hours in RPMI1640 medium containing the compounds at final concentrations ranging from 64 to 0.125 μg/ml. CC50 was determined using a standard curve of serially diluted untreated cells in each experiment.

[4] = Lipid II binding by Surface Plasmon Resonance; conditions: SPR, immobilized 3-Lipid II, 25°C
Description: Short-chain water-soluble Lipid II containing a lipid tail of three isoprene units was generated and purified essentially as described. Typically, M. flavus vesicles (120 μmol lipid-Pi) were incubated together with 500 μmol UDP-GlcNAc, 500 μmol UDP-MurNAC-pentapeptide and 400 μmol farnesyl phosphate in 100 mM Tris-HCl pH 8.0, 5 mM MgCl2. The incubation lasted two hours at room temperature for 3-P. The synthesis of 3-Lipid II was followed using RP-8 reversed phase TLC (Merck) developed in 75% methanol. For purification, the membranes were removed by centrifugation at 40,000 x g and the supernatant was collected and loaded on a C18 HPLC column and eluted with a linear gradient from 50 mM ammonium bicarbonate to 100% methanol in 30 minutes. Farnesyl-Lipid II (3-Lipid II) eluted at approximately 60% methanol. Its identity was confirmed by mass spectroscopy. Surface Plasmon Resonance binding experiments were carried out on a BIAcore T100 system (BIAcore Inc., Piscataway, NY) at 25°C. The assay buffer was 10 mM HEPES, 150 mM NaCl, 0.05% surfactant P20, pH 7.4 (± 3 mM EDTA) supplemented with 10% DMSO. 3-Lipid II (50 RUs) was immobilized on CM5 sensor chips using the amine-coupling chemistry recommended by the manufacturer. For initial determination of binding, compounds were introduced into the flow-cells (30 μl/min) in the running buffer at 10 μM. Resonance signals were corrected for nonspecific binding by subtracting the background of the control flow-cell. After each analysis, the sensor chip surfaces were regenerated with 50 mM NaOH for 30 s at a flow rate 100 μl/min, and equilibrated with the buffer prior to next injection. For binding kinetics studies, binding isotherms were analyzed with manufacturer-supplied software for BIAcore T100.

Structure (SMILES)	Antibacterial activity (MIC) A. baumanii ATCC 19606 (A. baumanii ATCC 19606)	Antibacterial activity (MIC) E. aerogenes ATCC 13048 (E. aerogenes ATCC 13048)	Antibacterial activity (MIC) E. cloacae ATCC 13047 (E. cloacae ATCC 13047)	Antibacterial activity (MIC) E. faecium EF1509 (VRE) (E. faecium EF1509 (VRE))	Antibacterial activity (MIC) E. faecium F118 (VRE) (E. faecium F118 (VRE))	Antibacterial activity (MIC) K. pneumoniae NR-15410 (KPC) [1]	Antibacterial activity (MIC) K. pneumoniae NR-15411 (KPC) [2]	Antibacterial activity (MIC) P. aeruginosa ATCC 27853 (P. aeruginosa ATCC 27853)	Antibacterial activity (MIC) P. aeruginosa PA01 (P. aeruginosa PA01)	Antibacterial activity (MIC) P. aeruginosa X13273 (P. aeruginosa X13273)	Antibacterial activity (MIC) S. aureus HFH-30123 (MRSA) [3]	Antibacterial activity (MIC) S. aureus MRSA 1094 (S. aureus MRSA 1094)	Kd [4]	CC50% (72 h HeLa cells) (HeLa cells)
Clc1ccc(-c2cc(/C=C/c3cc4c5c(c3)CCCN5CCC4)[o+]c(-c3ccc(Cl)cc3)c2)cc1.F[B-](F)(F)F [6jc-69-4]	>=64	≥ 64 µg/mL	≥ 64 µg/mL	4	5.66	≥ 64 µg/mL	≥ 64 µg/mL	≥ 64 µg/mL	≥ 64 µg/mL	>=64	8 µg/mL	8 µg/mL	30.3 ± 0.5 µM	3.09
CCc1ccc(-c2cc(/C=C/C=C/c3ccc(N(C)C)cc3)[o+]c(-c3ccc(CC)cc3)c2)cc1.F[B-](F)(F)F [6jc64-2]	>=64	≥ 64 µg/mL	≥ 64 µg/mL	5.66	16	≥ 64 µg/mL	≥ 64 µg/mL	≥ 64 µg/mL	≥ 64 µg/mL	>=64	8 µg/mL	8 µg/mL	23.8 ± 4 µM	<.78125
CCc1ccc(-c2cc(/C=C/c3cc4c5c(c3)CCCN5CCC4)[o+]c(-c3ccc(CC)cc3)c2)cc1.F[B-](F)(F)F [6jc-69-1]	32	≥ 64 µg/mL	≥ 64 µg/mL	2	2	≥ 64 µg/mL	≥ 64 µg/mL	≥ 64 µg/mL	≥ 64 µg/mL	>=64	2 µg/mL	2 µg/mL	16.1 ± 0.3 µM	<.78125
Cc1ccc(-c2cc(/C=C/c3c[nH]c4ccccc34)[o+]c(-c3ccc(C)c(C)c3)c2)cc1C.F[B-](F)(F)F [6jc-59-3]	>=64	≥ 64 µg/mL	≥ 64 µg/mL	5.657	8	≥ 64 µg/mL	≥ 64 µg/mL	≥ 64 µg/mL	≥ 64 µg/mL	>=64	4 µg/mL	4 µg/mL	27.9 ± 3 µM	1.35
CN(C)c1ccc(/C=C/C=C/c2cc(-c3ccc(Cl)cc3)cc(-c3ccc(Cl)cc3)[o+]2)cc1.F[B-](F)(F)F [6jc43-2]	>=64	≥ 64 µg/mL	≥ 64 µg/mL	64	>=64	≥ 64 µg/mL	≥ 64 µg/mL	≥ 64 µg/mL	≥ 64 µg/mL	>=64	≥ 64 µg/mL	≥ 64 µg/mL	–	>32
CCc1ccc(-c2cc(/C=C/c3ccc(N(C)C)cc3)[o+]c(-c3ccc(CC)cc3)c2)cc1.F[B-](F)(F)F [6jc64-1]	16	≥ 64 µg/mL	≥ 64 µg/mL	4	5.66	≥ 64 µg/mL	≥ 64 µg/mL	≥ 64 µg/mL	≥ 64 µg/mL	>=64	4 µg/mL	4 µg/mL	–	<.78125

More lines, in order of falling Kd [4], values ahead:

Antibacterial activity (MIC) A. baumanii ATCC 19606 (A. baumanii ATCC 19606)	Antibacterial activity (MIC) E. aerogenes ATCC 13048 (E. aerogenes ATCC 13048)	Antibacterial activity (MIC) E. cloacae ATCC 13047 (E. cloacae ATCC 13047)	Antibacterial activity (MIC) E. faecium EF1509 (VRE) (E. faecium EF1509 (VRE))	Antibacterial activity (MIC) E. faecium F118 (VRE) (E. faecium F118 (VRE))	Antibacterial activity (MIC) K. pneumoniae NR-15410 (KPC) [1]	Antibacterial activity (MIC) K. pneumoniae NR-15411 (KPC) [2]	Antibacterial activity (MIC) P. aeruginosa ATCC 27853 (P. aeruginosa ATCC 27853)	Antibacterial activity (MIC) P. aeruginosa PA01 (P. aeruginosa PA01)	Antibacterial activity (MIC) P. aeruginosa X13273 (P. aeruginosa X13273)	Antibacterial activity (MIC) S. aureus HFH-30123 (MRSA) [3]	Antibacterial activity (MIC) S. aureus MRSA 1094 (S. aureus MRSA 1094)	Kd [4]	Structure (SMILES)	CC50% (72 h HeLa cells) (HeLa cells)
>=64	≥ 64 µg/mL	≥ 64 µg/mL	8	5.657	≥ 64 µg/mL	≥ 64 µg/mL	≥ 64 µg/mL	≥ 64 µg/mL	>=64	4 µg/mL	2 µg/mL	10 ± 3 µM	Cc1ccc(-c2cc(/C=C/c3c[nH]c4ccccc34)[o+]c(-c3ccc(C)cc3)c2)cc1.F[B-](F)(F)F [6jc-53-2]	1.12
8	64 µg/mL	64 µg/mL	0.5	2	16 µg/mL	64 µg/mL	–	64 µg/mL	45.25	2 µg/mL	1 µg/mL	9.2 ± 2 µM	Cc1ccc(-c2cc(/C=C/c3ccc(N(C)C)cc3)[o+]c(-c3ccc(C)cc3)c2)cc1.F[B-](F)(F)F [6jc51-1]	<.78125
45.25	≥ 64 µg/mL	≥ 64 µg/mL	4	8	≥ 64 µg/mL	≥ 64 µg/mL	≥ 64 µg/mL	≥ 64 µg/mL	>=64	4 µg/mL	2.83 µg/mL	2.9 ± 0.3 µM	Cn1cc(/C=C/c2cc(-c3ccccc3)cc(-c3ccccc3)[o+]2)c2ccccc21.F[B-](F)(F)F [6jc66-1]	1.36
>=64	≥ 64 µg/mL	≥ 64 µg/mL	4	4	≥ 64 µg/mL	≥ 64 µg/mL	≥ 64 µg/mL	≥ 64 µg/mL	>=64	2 µg/mL	2 µg/mL	1.9 ± 0.3 µM	Cc1ccc(-c2cc(/C=C/c3ccc(N(C)C)cc3)[o+]c(-c3ccc(C)c(C)c3)c2)cc1C.F[B-](F)(F)F [6jc-59-1]	<.78125

Source: publication PMC5077133, “Towards Development of Small Molecule Lipid II Inhibitors as Novel Antibiotics” (PLoS ONE, 2016)
